Experimental data from patent US20230245725A1, “Means and Methods for the Prediction of Amyloid Core Sequences” (VIB VZW, priority 2020, published 2023).

Experiments:
Type in all cases: physicochemical
[1] = pFTAA binding assay of synthetic peptides; settings: 200 μM peptide, rotation 5 days, room temperature; pFTAA 0.5 μM
Text: (§1) In the interest of improving the current description of the familiar amyloidogenic protein dataset, we selected and synthesised a subset of 96 peptides corresponding to strong aggregation prone regions identified in these proteins by Cordax. Apart of prediction strength, the peptide screen was also selectively constructed to ensure broad sequence variability and a wide distribution on the proteins of the dataset, with a preference for longer entries defined by inadequate previous characterisation. Peptide sequences were cross-checked and filtered to exclude overlapping sequences with previously identified amyloid regions and WALTZ-DB (see Table 2). The remaining selection of 96 peptides were synthesized using standard solid phase synthesis and their amyloid-forming properties were initially examined using Thioflavin-T (Th-T) or pFTAA binding, following rotating incubation for 5 days at room temperature. The binding assays are complementary, as Th-T and pFTAA are opposingly charged molecules, which increases the amyloid identification rate by overcoming cases of dye-specific failure to bind to amyloid surfaces based on charge repulsion. Under these conditions, 66 peptides successfully bind the specific dyes (FIGS. 3a & 3b) by forming fibrils with typical amyloid morphologies and properties that were verified using transmission electron microscopy (FIG. 3c) and Congo red staining for selected cases (FIG. 3d). As these dyes are known to yield false negatives, in particular for short peptides, all dye-negative peptides were further investigated using electron microscopy. During this scan, we recovered 19 additional sequences that were capable of forming sparse amyloid-like fibrils with shorter lengths (see FIG. 8).
(§2) Peptides derived from the Cordax validation set were synthesized using an Intavis Multipep RSi solid phase peptide synthesis robot. Peptide purity (>90%) was evaluated using RP-HPLC purification protocols and peptides were stored as ether precipitates (−20° C.). Peptide stocks were initially treated with 1,1,1,3,3,3-hexafluoro-isopropanol (HFIP) (Merck), then dissolved in traces of dimethyl sulfoxide (DMSO) (Merck) (<5%), filtered through 0.2 μm filters and finally in milli-Q water to reach a final concentration of 200 μM or up to 1 mM for dye-negative peptides. Dithiothreitol (DTT) (1 mM) was included in solutions of peptides spanning cysteine or methionine residues. All peptides were incubated at room temperature for a period of 5 days on a rotating wheel.
(§3) Amyloid aggregation was monitored using fluorescent spectroscopy binding assays. Th-T (Sigma) or pFTAA (Ebba Biotech AB) was added in half-area black 96-well microplates (Corning, USA) at a final concentration of 25 μM and 0.5 μM, respectively. Fluorescence intensity was measured in replicates (n=6) using a PolarStar Optima and a FluoStar Omega plate reader (BMG Labtech, Germany), equipped with an excitation filter at 440 nm and emission filters at 480 nm and 510 nm, respectively.

[2] = Amyloid-forming properties of the peptide screen (overall call from Th-T, pFTAA, TEM); settings: overall amyloid-forming call
Text: as §1, with “8). […]” for “8).”
as §2, §3
(§4) Peptide solutions were incubated for 5 days at room temperature in order to form mature amyloid-like fibrils. Suspensions (5 μL) of each peptide solution were added on 400-mesh carbon-coated copper grids (Agar Scientific Ltd., England), following a glow-discharging step of 30 s to improve sample adsorption. Grids were washed with milli-Q water and negatively stained using uranyl acetate (2% w/v in milli-Q water). Grids were examined with a JEM-1400 120 kV transmission electron microscope (JEOL, Japan), operated at […].

[3] = Thioflavin-T binding assay of synthetic peptides; settings: 200 μM peptide, rotation 5 days, room temperature; Th-T 25 μM
Text: as §1, §2, §3

[4] = Transmission electron microscopy of peptide fibrils; settings: amyloid-like fibrils after 5 days at room temperature
Text: as §1, §4

Row | pFTAA Binding [1] | Amyloid [2] | Th-T Binding [3] | TEM [4] | Substance
1 | ● | ● | ● | – | AFFLFC
2 | ● | ● | – | – | AYVILK
3 | ● | ● | – | – | CEFLRK
4 | ● | ● | ● | – | EDCFIL
5 | – | ● | – | ● | FLGYFK
6 | ● | ● | ● | – | FSFTIA
7 | – | ● | – | ● | FYAVRL
8 | ● | ● | ● | – | GDVAFI
9 | – | ● | ● | – | GWFLGW
10 | ● | ● | – | – | GWNIPM
11 | ● | ● | ● | – | IGVVGW
12 | ● | ● | – | – | LHCLRR
13 | ● | ● | ● | – | LIVSIL
14 | ● | ● | – | – | LLDNWD
15 | ● | ● | ● | – | LQVDLG
16 | ● | ● | ● | – | MELIVS
17 | ● | ● | ● | – | MFSEFD
18 | ● | ● | – | – | MIIYKG
19 | – | ● | ● | – | MLHKEF
20 | ● | ● | ● | – | MSVSLV
21 | ● | ● | – | – | NLYEKT
22 | ● | ● | – | – | SEFSKK
23 | ● | ● | – | – | SVDYEV
24 | ● | ● | ● | – | SYVLQT
25 | ● | ● | – | – | TKVIPY
26 | ● | ● | ● | – | VNIELL
27 | ● | ● | ● | – | VYTVFA
28 | ● | ● | ● | – | YFTAIQ
29 | ● | ● | ● | – | YVAGIT

Further lines, the substance ahead of its results:

Row | Substance | pFTAA Binding [1] | Amyloid [2] | Th-T Binding [3] | TEM [4]
30 | DCFEYV | ● | ● | ● | –
31 | DLVVFE | ● | ● | ● | –
32 | EVYKWT | ● | ● | – | –
33 | FEYVQL | ● | ● | ● | –
34 | FKVAIV | ● | ● | – | –
35 | HYYAVA | ● | ● | – | –
36 | INAWLF | ● | ● | ● | –
37 | INFEFS | ● | ● | ● | –
38 | LCSTFC | ● | ● | ● | –
39 | LIFMGH | ● | ● | ● | –
40 | LNLKLL | ● | ● | – | –
41 | LSIWES | ● | ● | ● | –
42 | LVMELD | ● | ● | ● | –
43 | MDVFMK | ● | ● | ● | –
44 | MVVEHP | ● | ● | – | –
45 | MYVSEM | ● | ● | ● | –
46 | QIIEIE | ● | ● | ● | –
47 | TDVVFM | ● | ● | ● | –
48 | TIFLDF | ● | ● | – | –
49 | VDMAMC | ● | ● | ● | –
50 | VVVNKM | ● | ● | – | –
